The results in this text go back to patent US10104893B2, “Pesticidally active polycyclic derivatives with sulfur substituted five membered ring heterocyles” (Syngenta Participations AG, priority 2015, dated 2018).

The structures appear in SMILES notation. Like-named read-outs stand apart in the source and are kept apart here. A value given as a limit tells only on which side of the number the result lay.

One may read the mortality as the percentage killed. For orientation: melting point means the temperature, or range, at which the solid turns liquid.

Data set [1] concerns Myzus persicae (Green Peach Aphid). Nature of the data set: Insecticidal action against Myzus persicae: feeding/contact activity. The format is in vivo. As to conditions: foliar, 144 h. The procedure:
Example B4: Insecticidal Action Against Myzus persicae (Green Peach Aphid): Feeding/Contact Activity
Sunflower leaf discs were placed onto agar in a 24-well microtiter plate and sprayed with aqueous test solutions prepared from 10′000 ppm DMSO stock solutions. After drying, the leaf discs were infested with an aphid population of mixed ages. The samples were assessed for mortality 6 days after infestation.

For data set [2], the system named is Plutella xylostella (Diamond Back Moth). The data set is described as follows: Insecticidal action against Plutella xylostella. The format is in vivo. Particulars: 120 h, read-out: effect in at least one of the two categories (mortality or growth inhibition); for percent effect (mortality or growth inhibition) at 200 ppm: application rate of 200 ppm, artificial diet, L2 larvae, 5 days after infestation. The procedure:
Example B7: Insecticidal Action Against Plutella xylostella (Diamond Back Moth)
24-well microtiter plates with artificial diet were treated with aqueous test solutions prepared from 10′000 ppm DMSO stock solutions by pipetting. After drying, the plates were infested with L2 larvae (10 to 15 per well). The samples were assessed for mortality and growth inhibition in comparison to untreated samples 5 days after infestation.

Data set [3] concerns Diabrotica balteata (Corn Root Worm). Nature of the data set: Insecticidal action against Diabrotica balteata. The format is in vivo. As to conditions: 96 h, read-out: effect in at least one of the two categories (mortality or growth inhibition); for percent effect (mortality or growth inhibition) at 200 ppm: application rate of 200 ppm, maize sprouts, L2 larvae, 4 days after infestation. The procedure: Example B2: Insecticidal Action Against Diabrotica balteata (Corn Root Worm)
Maize sprouts placed onto an agar layer in 24-well microtiter plates were treated with aqueous test solutions prepared from 10′000 ppm DMSO stock solutions by spraying. After drying, the plates were infested with L2 larvae (6 to 10 per well). The samples were assessed for mortality and growth inhibition in comparison to untreated samples 4 days after infestation.

Data set [4] deals with Spodoptera littoralis (Egyptian Cotton Leaf Worm). The data set is described as follows: Insecticidal action against Spodoptera littoralis, sprayed cotton leaf discs. The format is in vivo. Particulars: foliar, 72 h, read-out: control (mortality, anti-feeding effect, growth inhibition). The procedure:
Example B8: Insecticidal Action Against Spodoptera littoralis (Egyptian Cotton Leaf Worm)
Cotton leaf discs were placed onto agar in 24-well microtiter plates and sprayed with aqueous test solutions prepared from 10′000 ppm DMSO stock solutions. After drying the leaf discs were infested with five L1 larvae. The samples were assessed for mortality, anti-feeding effect, and growth inhibition in comparison to untreated samples 3 days after infestation. Control of Spodoptera littoralis by a test sample is given when at least one of the categories mortality, anti-feeding effect, and growth inhibition is higher than the untreated sample.

Data set [5] relates to Euschistus heros (Neotropical Brown Stink Bug). Nature of the data set: Insecticidal action against Euschistus heros. The format is in vivo. Particulars: 120 h, read-out: effect in at least one of the two categories (mortality or growth inhibition); for percent effect (mortality or growth inhibition) at 200 ppm: application rate of 200 ppm, soybean leaves, N2 nymphs, 5 days after infestation. The procedure:
Example B3: Insecticidal Action Against Euschistus heros (Neotropical Brown Stink Bug)
Soybean leaves on agar in 24-well microtiter plates were sprayed with aqueous test solutions prepared from 10′000 ppm DMSO stock solutions. After drying the leaves were infested with N2 nymphs. The samples were assessed for mortality and growth inhibition in comparison to untreated samples 5 days after infestation.

Where [6] appears, read: application rate of 200 ppm, cotton leaf discs, L1 larvae, 3 days after infestation.

On to `CCn1c(C(F)(F)F)cc2nc(-c3sc(-c4ccc(Cl)cc4)cc3S(=O)(=O)CC)n(C)c2c1=O` [A2, 2-[5-(4-chlorophenyl)-3-ethylsulfonyl-2-thienyl]-5-ethyl-3-methyl-6-(trifluoromethyl)-3aH-imidazo[4,5-c]pyridin-4-one], for which the mortality at 200 ppm in data set [1] and in data set [4] was not below 80% in each case. The percent control (mortality or growth inhibition) at 200 ppm in data set [2], in data set [3] and in data set [5] (in Glycine max) was not below 80% in each case.
With `CCSc1cc(-c2ccc(Cl)cc2)sc1-c1nc2cc(C(F)(F)F)n(CC)c(=O)c2n1C` [A1, 2-[5-(4-chlorophenyl)-3-ethylsulfanyl-2-thienyl]-5-ethyl-3-methyl-6-(trifluoromethyl)-3aH-imidazo[4,5-c]pyridin-4-one], the percent effect (mortality or growth inhibition) at 200 ppm in data set [2] and in data set [3] was not below 80% throughout.
`CCn1c(C(F)(F)F)cc2nc(-c3sc(-c4cccc(F)c4)cc3S(=O)(=O)CC)n(C)c2c1=O`: the melting point lay in the range of 194 to 195 °C.
For `CCS(=O)(=O)c1sc(-c2ccc(Cl)cc2)nc1-c1nc2cc(C(F)(F)F)n(C)c(=O)c2n1C` [A48, 2-[2-(4-chlorophenyl)-5-ethylsulfonyl-thiazol-4-yl]-3,5-dimethyl-6-(trifluoromethyl)imidazo[4,5-c]pyridin-4-one], the percent effect (mortality or growth inhibition) at 200 ppm in data set [2], in data set [3] and in data set [5] was not below 80% throughout. Moreover, in data set [4] (setting [6]), the mortality at 200 ppm is not below 80%.
Compound `CCn1c(C(F)(F)F)cc2nc(-c3sc(-c4cc(F)cc(F)c4)cc3S(=O)(=O)CC)n(C)c2c1=O` returned a melting point of 180 to 182 °C.
Take `CCS(=O)(=O)c1cc(I)sc1-c1nc2cc(C(F)(F)F)n(C)c(=O)c2n1C` [A44, 2-(3-ethylsulfonyl-5-iodo-2-thienyl)-3,5-dimethyl-6-(trifluoromethyl)imidazo[4,5-c]pyridin-4-one]: the percent effect (mortality or growth inhibition) at 200 ppm in data set [2], in data set [3] and in data set [5] was not below 80% each time. Moreover, the mortality at 200 ppm in data set [4] (setting [6]) is not below 80%.
